{"source": "patent US12472166B2", "about": "“Inhibition of mycobacterial type VII secretion” (priority 2019, dated 2025)", "key": {"[1]": {"test_system": "M. tuberculosis overexpressing ethA", "type": "cell-based"}, "[2]": {"test_system": "resistant M. tuberculosis strains", "type": "cell-based"}}}
{"smiles": "O=C(CSc1nc(-c2ccccc2)no1)NC1CCCC1", "note": "[Compound I-31]", "values": [{"measurement": "activity in the ethA overexpression strain compared to WT M. tuberculosis", "setting": "[1]", "value": "did not show an increased activity"}]}
{"smiles": "O=C(CSc1nc(-c2ccccc2)no1)NC1CCCC1", "note": "[Compound I-28]", "values": [{"measurement": "activity in the ethA overexpression strain compared to WT M. tuberculosis", "setting": "[1]", "value": "increased activity in the ethA overexpression strain"}]}
{"smiles": "COc1ccc(-c2nsc(SCC(=O)NC3CCCC3)n2)cc1", "note": "[Compound I-12]", "values": [{"measurement": "increased susceptibility as compared to the parent WT strain", "setting": "[1]", "value": "at least 4 fold"}, {"measurement": "concentration in presence of which resistant strains were grown", "setting": "[2]", "value": 80, "unit": "µM"}, {"measurement": "increase compared to the susceptible WT strain", "setting": "[2]", "value": 64, "unit": "fold"}]}
